Structures are written as SMILES. Several values for one entry are separate records, joined by “and”; a condition that tells them apart may be missing. Equal entries are not always repeated.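 The compound was tested at five concentrations on cells cultured in 96-well plates, with a 48-hour exposure period. The concentration for 50% growth inhibition is given as GI50. TGI marks complete inhibition of growth.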

Holding throughout (test): NCI-60 cell line screen, 48 h
Test [1] deals with CCRF-CEM leukemia.
Test [2] has as its system DU-145 prostate.
In test [3] the test system is HCT-116 colon.
In test [4] the test system is HL-60(TB) leukemia.
The test system of test [5] is IGROV1 ovarian.
Test [6] concerns M14 melanoma.
Test [7] relates to MDA-N.
Test [8] concerns NCI-H226 lung.
For test [9], the system named is NCI-H23 lung.
The subject of test [10] is SK-MEL-28 melanoma.

Regarding `CC(=O)c1sc2c(c1OC(=O)c1ccccc1)c(=O)n(-c1ccccc1)c(=S)n2-c1ccccc1`, the TGI in test [1] is 5.83 µM; in [2], 79 µM; in test [3], 34.2 µM; in [4] it was above 68.1 µM; in [5], 54.5 µM; in test [6], 14.3 µM. Further, the TGI in test [7] was 27.2 µM; in test [8] it was 8.33 µM; in [9] it was above 71.9 µM; in test [10] it was 30.4 µM.

Consider `CC(C)(Cl)C(Cl)CC/C(CBr)=C(\Cl)CBr` (stereo not drawn), for which the TGI in test [1] turned out to be 0.325 µM; in test [2] it was 20.1 µM; in [3] it was 5.89 µM; in test [5] it was 3.66 µM; in [6], 3.22 µM; in test [7], 3.65 µM. For the same molecule, the values for the TGI in test [8], in [9] and in [10] were 5.28 µM, 3.77 µM and 4.38 µM, respectively.

Take `CCCCCCC(O)C(=O)OC1C2C(CC1(C)C)C(O)C13OC1C(O)C1(CO1)[C@@]23C` (stereo partly drawn): the TGI in [1], in [2], in [3], in test [4], in test [5] and in test [6] was above 100 µM in each case. Besides, the TGI in [7], in test [9] and in [10] was above 100 µM in each case.

Turning to `O=c1[nH]c(Br)nc2n[nH]nc12`, the TGI in test [1], in [2], in test [3], in [4], in test [5] and in test [6] was above 100 µM each time. The TGI in [7], in test [8] and in [9] was above 100 µM in each case.

Turning to `C[n+]1ccc2/c(=C\C#N)c3ccccc3n21`, the TGI in [1] is 51.4 µM; in test [2], 46.4 µM; in test [3], above 100 µM; in test [4], 65.6 µM; in test [5], 78.3 µM; in [6], above 100 µM. Besides, the TGI in test [7] is above 100 µM; in [8] it was above 100 µM; in test [9] it was 40.7 µM; in test [10] it was 53.5 µM.

As for `C/C1=C\CC[C@@]2(C)O[C@@H]2C[C@@H]2[C@H](C/C(C)=C/CC1)OC(=O)[C@]21CO1`, the TGI in test [1], in test [2], in test [3], in [4], in test [5] and in test [6] was above 100 µM throughout. The TGI in [7], in test [8], in [9] and in test [10] was above 100 µM throughout.

Regarding `NC1C2C=CC(C2)C1C(=O)O` (stereo not drawn), the TGI in [1], in test [2], in [3], in test [4], in test [5] and in test [6] was above 100 µM in each case. Also, the TGI in test [7], in [8], in test [9] and in [10] was above 100 µM in each case.

For the molecule `Oc1ccccc1CNCc1ccccc1O`, the TGI in [1], in [2], in [3], in test [4], in test [5] and in test [6] was above 100 µM each time. For the same molecule, the TGI in test [7], in test [8], in test [9] and in test [10] was above 100 µM each time.

With `Cc1nnc(N)nc1C/C=C/C(C)Sc1ccc(Cl)cc1` (stereo not drawn), the TGI in test [1] stood at 26.4 µM; in test [2], 38.1 µM; in test [3] it was 33.8 µM; in test [4], 10.1 µM; in [5], 13.5 µM; in test [6], 26 µM. For the same molecule, the TGI in test [7] is above 100 µM; in test [8] it was 7.69 µM; in [9], 36 µM; in test [10] it was 45 µM.

Regarding `CC(c1ccccc1)n1c2ccccc2c2c(N)ncnc21` (stereo not drawn), the TGI in test [1] was above 100 µM; in [2] it was 42.8 µM; in test [3] it was 38.5 µM; in test [4] it was 47.8 µM; in [5], 38.2 µM; in test [6] it was 34.1 µM. In addition, the TGI in test [7] was 51.9 µM; in test [9], 39.5 µM; in [10], 33.8 µM.

As to `CCOC(OCC)[C@@H]1C[C@@H]2N(O[C@H](OC3CCCC3(c3ccccc3)c3ccccc3)[C@H](OC(C)=O)[C@@]2(CC)Cc2ccc(OC)c(OC)c2)O1` (stereo partly drawn), the TGI in test [1], in test [2], in [3], in [5], in test [6] and in test [7] was above 100 µM in each case. The TGI in test [8], in test [9] and in test [10] was above 100 µM each time.

Turning to `NCCNc1ccc(NCCN)c2c1C(=O)c1c(O)ccc(O)c1C2=O`, the TGI in test [1] was 3.79 µM; in test [2], 0.398 µM and 2.56 µM; in test [3], 0.52 µM and 0.446 µM; in test [5], 1.17 µM and 1.5 µM; in [6], 1.27 µM and 1.32 µM; in test [7], 2.33 µM and 1.43 µM. For the same molecule, the TGI in [8] is 0.0439 µM and 0.0393 µM; in test [9] it was 0.0442 µM and 0.0835 µM; in [10], 2.28 µM and 2.15 µM. In addition, the GI50 in test [2] is 0.0301 µM; in test [3] it was 0.0343 µM; in [5], 0.182 µM; in test [6] it was 0.0324 µM; in test [7] it was 0.26 µM; in test [8], 0.0102 µM. Also, the GI50 in test [9] was below 0.0144 µM.

For `CC1=C(C(=O)NNC(=O)c2ccccc2O)CC(C(=O)NNC(=O)c2ccccc2O)=C(C)N1`, the TGI was above 35.5 µM in [1]; above 93.5 µM in [2]; above 51.5 µM in [3]; above 35.4 µM in [5]; above 76 µM in [6]; above 100 µM in [7]. In addition, the TGI was above 41.7 µM in test [8], above 100 µM in [9] and above 100 µM in [10].

Regarding `S=C1C(CCCOCc2ccccc2)C2CCCC23CC2(CCN13)OCCS2` (stereo not drawn), the TGI in [1], in [2], in [4], in test [5], in test [6] and in test [7] was above 10 µM throughout. The TGI in test [8], in test [9] and in test [10] was above 10 µM in each case.

Turning to `CC(C)(C)C1CCC2c3c([nH]c4ccccc34)C3C(=O)N(c4cc(Cl)ccc4Cl)C(=O)C3C2C1` (stereo not drawn), the TGI in [1], in test [2], in test [3], in test [5], in test [6] and in test [7] was above 100 µM each time. The TGI in test [8] and in test [9] was above 100 µM throughout.

Take `COC1=C(OC)C(=O)C(C/C=C/c2c(Cl)nc3sccn23)=C(C)C1=O`: the TGI came to 41.1 µM in test [1]; 40.3 µM in test [2]; 33.5 µM in [3]; 35.9 µM in test [5]; 32.5 µM in test [6]; 19.8 µM in test [7]. For the same molecule, the TGI is 7.76 µM in [9] and 33.7 µM in test [10].

As to `CCN(CC)CCC(=O)Nc1ccc2sc3ccccc3c(=O)c2n1`, the TGI was 75.6 µM in test [1]; above 100 µM in test [2]; 29.4 µM in [3]; 30.9 µM in [4]; 35.8 µM in test [5]; 28.1 µM in [6]. Also, the TGI in test [7] was 30.3 µM; in test [9], 43.8 µM; in test [10], 33.6 µM.

As for `CC(NNC(=S)N1CCCC1)c1cccnn1` (stereo not drawn), the TGI was above 100 µM in [1]; above 70 µM in [2]; above 44 µM in test [3]; above 100 µM in test [4]; above 59.3 µM in [5]; above 100 µM in test [7]. The TGI in [8] is above 26.5 µM; in [9], above 100 µM; in test [10], above 31.6 µM.

Turning to `O=C1NC(NNc2ccccc2)=N/C1=C\c1ccco1`, the TGI in [1] was above 100 µM; in test [2] it was 42.9 µM; in test [3], 37.9 µM; in [4] it was 90.3 µM; in test [5] it was 34 µM; in test [6], 44.5 µM. Besides, the TGI in [7] was above 100 µM; in test [9], 45.9 µM; in test [10], 68.5 µM.

`COc1c(N2CCCCC2)c2c(=O)c3ccccc3oc2c2c3ccccc3n(C)c12`: the TGI in test [1], in test [2], in [3], in test [4], in [6] and in [7] was above 100 µM each time. Moreover, the TGI in test [8], in test [9] and in test [10] was above 100 µM each time.

Take `C=C1C(=O)O[C@H]2C1C[C@H](O)/C(C)=C/CC[C@@]1(C)O[C@H]21` (stereo partly drawn): the TGI in test [1] came to 13.6 µM; in [2], 49.5 µM; in test [3] it was 28.6 µM; in test [5] it was 28.3 µM; in test [6] it was 23.9 µM; in test [7] it was 30.3 µM. For the same molecule, the TGI came out at 37.5 µM in test [9] and 38.7 µM in [10].

For `CC(C)(CN1CCCCC1)C(=O)CC(SCCS(=O)(=O)O)c1ccccc1` (stereo not drawn), the TGI in test [1] was 32.1 µM; in [2], 29.3 µM; in [3], 18.2 µM; in test [5] it was above 100 µM; in test [6], 26 µM; in test [7], 34.6 µM. In test [8], the TGI turned out to be 62 µM.

`O=C(Cn1c2ccc(Br)cc2c2nc3ccccc3nc21)N1CCOCC1`: the TGI in test [1], in [2], in test [3], in test [5], in test [6] and in test [7] was above 100 µM throughout. The TGI in test [8], in [9] and in test [10] was above 100 µM throughout.

On to `CC(C)C1CCC(=O)CC1CCCCC1CC(=O)CC1O[Si](C)(C)C(C)(C)C` (stereo not drawn), for which the TGI was above 22.2 µM in test [1]; 39.1 µM in test [2]; 15.3 µM in [3]; 8.24 µM in test [5]; 43.4 µM in test [6]; 21.1 µM in test [7]. In addition, the TGI turned out to be 15.5 µM in test [8], 33.7 µM in test [9] and 19.7 µM in test [10].

For `Cn1c2ccccc2c(=NNc2ccc(S(=O)(=O)N=C(N)N)cc2)c2ccccc21`, the TGI amounted to 31.9 µM in test [1]; 32.3 µM in test [2]; 17 µM in test [3]; 38.6 µM in test [4]; 28.5 µM in test [5]; 30.1 µM in [6]. For the same molecule, the results for the TGI in [7], in test [8] and in test [9] were 25.1 µM, 19 µM and 26.9 µM, respectively.

Consider `COc1c(-c2ccc(F)cc2)oc2c(CC(=O)O)cccc2c1=O`, for which the TGI in test [1], in [2], in [3], in test [4], in test [5] and in [6] was above 100 µM in each case. For the same molecule, the TGI in [7], in [8] and in [9] was above 100 µM throughout.

In the case of `COc1ccc(C(SCCO)(c2ccc(OC)cc2)c2ccc(OC)cc2)cc1`, the TGI in test [1] was 66 µM; in test [2], above 100 µM; in test [3] it was 29.2 µM; in [4] it was 87.7 µM; in test [6] it was 38.5 µM; in test [7], 18.1 µM. Also, the TGI in test [8] came out at 32.7 µM; in test [9], 45.2 µM; in [10] it was 38.6 µM.

For the molecule `Cc1ccc(C(CCO)CCO)nc1`, the TGI in test [1], in test [2], in [3], in [4], in [6] and in [7] was above 100 µM each time. Further, the TGI in test [8], in test [9] and in test [10] was above 100 µM each time.

`O=c1[nH]nc(-c2ccccc2)n1-n1cccc1`: the TGI in test [1], in [2], in [3], in test [5], in test [6] and in [7] was above 100 µM throughout. For the same molecule, the TGI in test [8] and in test [10] was above 100 µM throughout.

The record behind these values is PubChem BioAssay (NCI).
